Assay results reported in patent publication US20210052616A1, “ANTHRACYCLINE ENCAPSULATED WITH A POLYSACCHARIDE FOR USE IN THE TREATMENT OF TUMOURS” (NANOVELOS S.A, priority 2018, published 2021).

How the values were obtained:
Type in all cases: cell-based
Conditions in all cases: 24 h
[1] = tested on: A2780; assay: MTT cytotoxicity test, A2780
Excerpt: (§1) In this test, […] present in the cells converts the soluble tetrazolium salt (3-4,5-dimethylthiazol-2-yl)-2,5-diphenyltetrazolium bromide) into a reduced form. The reaction yields water-insoluble purple crystalline formazan. The number of crystals formed depends on the enzyme activity so that it is directly proportional to the number of viable cells in the sample. Spectrophotometric measurement requires the use of an organic solvent to dissolve the crystals obtained (isopropanol). The change in colour intensity is measured by spectrophotometry at 570 nm wavelength. The test was performed for a number of dilutions (9) of nanoparticle solutions containing the tested anthracycline. The baseline concentration of nanoparticles for MTT tests was 2.5 mg of nanoparticles/ml. […] The study was also performed for drug-free nanoparticles (the carrier itself was obtained similarly to the nanoparticles with the drug). Cells not exposed to toxic substances were used as a control for toxicity studies.
(§2) After reaching 85-90% confluence, the cells were trypsinised using a 0.25% trypsin solution. The cells were then centrifuged (1200 rpm, 5 min.) and suspended in a culture medium suitable for a particular cell line. […] The cells were plated at a concentration of 1000 cells/100 μl of medium per culture well (96-well plates). The prepared plates were incubated (37° C./5% CO2/22 h to 26 h). Subsequently, the culture medium was replaced with a fresh one (100 μl) containing the appropriate concentration of the tested nanoparticles and set aside for 24 h (37° C./5% CO2). After the lapse of the test time, the medium was removed and replaced with 50 μl of an MTT reagent solution at a concentration of 1 mg/ml. The plate was incubated for 2 hours (37° C./5% CO2). Subsequently, the MTT solution was removed, and 100 μl of isopropanol was added. […] The mean value of absorbance read OD570 of the cells not exposed to a toxic agent (control) should be above 0.7 [see literature item 206].
(§3) A decrease in the number of viable cells causes a decrease in metabolic activity in the sample. This reduction directly correlates with the amount of blue and purple formazan formed, monitored basing on the optical density at 570 nm. The following equation (C.1) is used to calculate viability reduction compared to control:
(§4) where: • OD570e is the mean value of the measured absorbance of the test samples; • OD570b is the mean value of the measured absorbance of the control.
(§5) The results obtained were statistically analysed using the Dixon Q test.

[2] = tested on: PANC-1; assay: MTT cytotoxicity test, PANC-1
Excerpt: as §1, §2, §3, §4, §5

[3] = tested on: COLO 205; assay: MTT cytotoxicity test, COLO 205
Excerpt: as §1, §2, §3, §4, §5

[4] = tested on: ACHN; assay: MTT cytotoxicity test, ACHN
Excerpt: as §1, §2, §3, §4, §5

[5] = tested on: A549; assay: MTT cytotoxicity test, A549
Excerpt: as §1, §2, §3, §4, §5

[6] = tested on: OVCAR-3; assay: MTT cytotoxicity test, OVCAR-3
Excerpt: as §1, §2, §3, §4, §5

[7] = tested on: AU565; assay: MTT cytotoxicity test, AU565
Excerpt: as §1, §2, §3, §4, §5

## COc1cccc2c1C(=O)c1c(O)c3c(c(O)c1C2=O)C[C@@](O)(C(C)=O)C[C@@H]3O[C@H]1C[C@H](N)[C@H](O)[C@H](C)O1 [Dau, daunorubicin]
[1]; A2780, 1.25E+04 ng/ml NPs (pure drug equimolar)
  Average viability: 0.540%
[1]; A2780, 1.25E+05 ng/ml NPs (pure drug equimolar)
  Average viability: 18.312%
[1]; A2780, 1.25E+06 ng/ml NPs (pure drug equimolar)
  Average viability: 60.422%
[1]; A2780, 2.50E+04 ng/ml NPs (pure drug equimolar)
  Average viability: 3.689%
[1]; A2780, 2.50E+05 ng/ml NPs (pure drug equimolar)
  Average viability: 35.542%
[1]; A2780, 2.50E+06 ng/ml NPs (pure drug equimolar)
  Average viability: 54.259%
[1]; A2780, 5.00E+03 ng/ml NPs (pure drug equimolar)
  Average viability: 0.295%
[1]; A2780, 5.00E+04 ng/ml NPs (pure drug equimolar)
  Average viability: 11.600%
[1]; A2780, 5.00E+05 ng/ml NPs (pure drug equimolar)
  Average viability: 60.621%
[2]; PANC1, 1.25E+05 ng/ml NPs (pure drug equimolar)
  Average viability: 48.79%
[2]; PANC1, 1.25E+06 ng/ml NPs (pure drug equimolar)
  Average viability: 1.02%
[2]; PANC1, 2.50E+04 ng/ml NPs (pure drug equimolar)
  Average viability: 61.24%
[2]; PANC1, 2.50E+05 ng/ml NPs (pure drug equimolar)
  Average viability: 33.21%
[2]; PANC1, 2.50E+06 ng/ml NPs (pure drug equimolar)
  Average viability: 95.12%
[2]; PANC1, 5.00E+03 ng/ml NPs (pure drug equimolar)
  Average viability: 95.12%
[2]; PANC1, 5.00E+04 ng/ml NPs (pure drug equimolar)
  Average viability: 56.67%
[2]; PANC1, 5.00E+05 ng/ml NPs (pure drug equimolar)
  Average viability: 0.54%
[3]; Colo205, 1.25E+04 ng/ml NPs (pure drug equimolar)
  Average viability: 34.20%
[3]; Colo205, 1.25E+05 ng/ml NPs (pure drug equimolar)
  Average viability: 3.75%
[3]; Colo205, 1.25E+06 ng/ml NPs (pure drug equimolar)
  Average viability: 5.07%
[3]; Colo205, 2.50E+04 ng/ml NPs (pure drug equimolar)
  Average viability: 19.17%
[3]; Colo205, 2.50E+05 ng/ml NPs (pure drug equimolar)
  Average viability: 3.47%
[3]; Colo205, 2.50E+06 ng/ml NPs (pure drug equimolar)
  Average viability: 30.89%
[3]; Colo205, 5.00E+03 ng/ml NPs (pure drug equimolar)
  Average viability: 30.89%
[3]; Colo205, 5.00E+04 ng/ml NPs (pure drug equimolar)
  Average viability: 4.46%
[3]; Colo205, 5.00E+05 ng/ml NPs (pure drug equimolar)
  Average viability: 2.93%
[4]; 1.25E+04 ng/ml NPs (pure drug equimolar)
  Average viability: 43.86%
[4]; 1.25E+05 ng/ml NPs (pure drug equimolar)
  Average viability: 2.75%
[4]; 1.25E+06 ng/ml NPs (pure drug equimolar)
  Average viability: 5.35%
[4]; 2.50E+04 ng/ml NPs (pure drug equimolar)
  Average viability: 1.60%
[4]; 2.50E+05 ng/ml NPs (pure drug equimolar)
  Average viability: 2.24%
[4]; 5.00E+04 ng/ml NPs (pure drug equimolar)
  Average viability: 2.88%
[4]; 5.00E+05 ng/ml NPs (pure drug equimolar)
  Average viability: 3.02%
[5]; A549, 1.25E+04 ng/ml NPs (pure drug equimolar)
  Average viability: 57.00%
[5]; A549, 1.25E+05 ng/ml NPs (pure drug equimolar)
  Average viability: 49.55%
[5]; A549, 1.25E+06 ng/ml NPs (pure drug equimolar)
  Average viability: 0.53%
[5]; A549, 2.50E+04 ng/ml NPs (pure drug equimolar)
  Average viability: 55.31%
[5]; A549, 2.50E+05 ng/ml NPs (pure drug equimolar)
  Average viability: 52.82%
[5]; A549, 2.50E+06 ng/ml NPs (pure drug equimolar)
  Average viability: 65.72%
[5]; A549, 5.00E+03 ng/ml NPs (pure drug equimolar)
  Average viability: 65.72%
[5]; A549, 5.00E+04 ng/ml NPs (pure drug equimolar)
  Average viability: 50.80%
[5]; A549, 5.00E+05 ng/ml NPs (pure drug equimolar)
  Average viability: 0.60%
[6]; OVCAR3, 1.25E+04 ng/ml NPs (pure drug equimolar)
  Average viability: 3.616%
[6]; OVCAR3, 1.25E+05 ng/ml NPs (pure drug equimolar)
  Average viability: 59.635%
[6]; OVCAR3, 1.25E+06 ng/ml NPs (pure drug equimolar)
  Average viability: 94.253%
[6]; OVCAR3, 2.50E+04 ng/ml NPs (pure drug equimolar)
  Average viability: 43.386%
[6]; OVCAR3, 2.50E+05 ng/ml NPs (pure drug equimolar)
  Average viability: 71.147%
[6]; OVCAR3, 2.50E+06 ng/ml NPs (pure drug equimolar)
  Average viability: 99.822%
[6]; OVCAR3, 5.00E+03 ng/ml NPs (pure drug equimolar)
  Average viability: 1.330%
[6]; OVCAR3, 5.00E+04 ng/ml NPs (pure drug equimolar)
  Average viability: 52.550%
[6]; OVCAR3, 5.00E+05 ng/ml NPs (pure drug equimolar)
  Average viability: 120.518%
[7]; AU565, 1.25E+04 ng/ml NPs (pure drug equimolar)
  Average viability: 58.57%
[7]; AU565, 1.25E+05 ng/ml NPs (pure drug equimolar)
  Average viability: 25.83%
[7]; AU565, 1.25E+06 ng/ml NPs (pure drug equimolar)
  Average viability: 1.544%
[7]; AU565, 2.50E+04 ng/ml NPs (pure drug equimolar)
  Average viability: 33.22%
[7]; AU565, 2.50E+05 ng/ml NPs (pure drug equimolar)
  Average viability: 12.14%
[7]; AU565, 2.50E+06 ng/ml NPs (pure drug equimolar)
  Average viability: 1.053%
[7]; AU565, 5.00E+03 ng/ml NPs (pure drug equimolar)
  Average viability: 75.96%
[7]; AU565, 5.00E+04 ng/ml NPs (pure drug equimolar)
  Average viability: 28.26%
[7]; AU565, 5.00E+05 ng/ml NPs (pure drug equimolar)
  Average viability: 3.245%
